Tests used:
Test in all cases: relative viability (nuclei count vs DMSO), 5 days (fraction); higher = more cells survive
[1] = compound: N=C1NC(=O)/C(=C/c2ccc(O)cc2)S1 [Mirin] + N=C(N)NC(=N)NCCc1ccccc1 [Phenformin] (partner 250 µM)
In short: (§1)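 After 5 days of treatment, lung cancer cells in 1536-well plates were fixed and stained in a single step (final 0.05% Triton X-100, 1% formaldehyde, 1 ug/ml Hoechst) and their nuclei counted on 4× images. Treatment had been applied by pin tool the day after seeding as one drug alone or as a fixed anchor-drug dose with five library-drug doses (not always all listed) in √10 steps. Relative viability is the nuclei count of treated wells divided by that of vehicle wells, and values are medians of duplicate plates.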

[2] = compound: CCn1c(-c2nonc2N)nc2cnc(Oc3cccc(NC(=O)c4ccc(OCCN5CCOCC5)cc4)c3)cc21 + CC(=O)c1c(C)c2cnc(Nc3ccc(N4CCNCC4)cn3)nc2n(C2CCCC2)c1=O [Palbociclib] (partner 0.5 µM)
In short: as §1

[3] = compound: N=C1NC(=O)/C(=C/c2ccc(O)cc2)S1 [Mirin] + O=C(c1cc(Cc2n[nH]c(=O)c3ccccc23)ccc1F)N1CCN(C(=O)C2CC2)CC1 [Olaparib] (partner 8 µM)
In short: as §1

[4] = compound: CCC1=CN=CN=C1N2CCN(CC2)CC3=NC4=C(N3)C=C(C=C4)C(F)(F)F + C[C@@H](Oc1cc(-c2cnn(C3CCNCC3)c2)cnc1N)c1c(Cl)ccc(F)c1Cl [Crizotinib] (partner 1 µM)
In short: as §1

UMC-11
relative viability ([1]; first compound 0.25 µM): 0.351 | relative viability ([1]; first compound 0.7906 µM): 0.272 | relative viability ([1]; first compound 2.5 µM): 0.334 | relative viability ([1]; first compound 7.906 µM): 0.32 | relative viability ([1]; first compound 25 µM): 0.236 | relative viability ([2]; first compound 0.04 µM): 0.277 | relative viability ([2]; first compound 0.1265 µM): 0.379 | relative viability ([2]; first compound 0.4 µM): 0.269 | relative viability ([2]; first compound 1.265 µM): 0.151 | relative viability ([2]; first compound 4 µM): 0.248 | relative viability ([3]; first compound 0.25 µM): 0.382 | relative viability ([3]; first compound 0.7906 µM): 0.316 | relative viability ([3]; first compound 2.5 µM): 0.332 | relative viability ([3]; first compound 7.906 µM): 0.279 | relative viability ([3]; first compound 25 µM): 0.331 | relative viability ([4]; first compound 0.04 µM): 0.572 | relative viability ([4]; first compound 0.1265 µM): 0.611 | relative viability ([4]; first compound 0.4 µM): 0.621 | relative viability ([4]; first compound 1.265 µM): 0.615 | relative viability ([4]; first compound 4 µM): 0.906

— the supplement of paper PMC10307832
